Data taken from patent US20120184590A1, “FORMULATIONS OF INDOLE-3-CARBINOL DERIVED ANTITUMOR AGENTS WITH INCREASED ORAL BIOAVAILABILITY” (UNIVERSITY OF KANSAS, priority 2009, published 2012).
“Also recorded” adds a separate entry of the source. Marks after values point to notes of the source that are not given here.

Assays:
[1] = Clinical observations and clinical pathology (liver enzymes) in monkeys; assay type: in vivo, cynomolgus monkeys (macaca fasicularis); settings: for ALT / AST / LDH: fed
Experimental: (§1) For both species, each animal was part of each experimental group, with a 7-day interval between treatments to allow for washout of the dosing formulation and its effects. Dosing formulations of SR13668 were administered by oral gavage (intragastric) or intravenous (i.v.) injection as a single dose or once daily for seven consecutive days. Oral to doses were administered at a dosing volume of 5 mL/kg of body weight, while intravenous doses were administered at a dosing volume of 0.5 mL/kg of body weight. Dogs were dosed with 93.6 mg/m^2 SR13668 intravenously in DMSO:PEG300 15:85 (v/v) or orally in Solutol® vehicle (two groups, fed and after an overnight fast). Monkeys were dosed with 84.2 mg/m^2 SR13668 intravenously in DMSO:PEG300 15:85 (v/v) or orally (336.7 mg/m^2 SR13668 for the oral high dose group) in PEG400:Labrasol® 1:1 (v/v) or Solutol® vehicles. Vehicle control groups were used to assess the tolerability of the vehicle and for clinical pathology evaluations.
(§2) At the end of each dosing period, the animals were examined for detailed clinical signs and symptoms (i.e., alterations of teeth, nose, eyes, perineum, pelage and body orifices; changes in appearance or behavior) and/or presence of any tissue masses. Body weights were recorded prior to treatment and daily during each testing interval. Quantitative (grams/day) food consumption data were recorded for dogs on a daily basis during each testing interval. Qualitative food consumption observations were recorded for monkeys on a daily basis during each testing interval. Blood samples for clinical pathology (clinical chemistry, hematology, and coagulation) parameter evaluation were collected from dogs and monkeys prior to dosing and on Days 2 and 8 post-dose, as well as from monkeys on Days 15 and 30 post-dose.

[2] = Clinical observations and clinical pathology in dogs; assay type: in vivo, beagle dogs; settings: for ALT / AST / LDH: day 2 following a single dose
Experimental: as §1, §2

[3] = Day 2 (n = 2), 84.2 mg/m^2 (7.02 mg/kg) oral gavage daily days 1 through 7, PEG400:Labrasol 1:1 v/v
[4] = Day 8, 84.2 mg/m^2 (7.02 mg/kg) oral gavage daily days 1 through 7, PEG400:Labrasol 1:1 v/v
[5] = Day 15 (after discontinuation), 84.2 mg/m^2 (7.02 mg/kg) oral gavage daily days 1 through 7, PEG400:Labrasol 1:1 v/v
[6] = Day 30 (after discontinuation), 84.2 mg/m^2 (7.02 mg/kg) oral gavage daily days 1 through 7, PEG400:Labrasol 1:1 v/v
[7] = day 2 following a single dose, 84.2 mg/m^2 (7.02 mg/kg) iv, DMSO:PEG300 15:85 v/v
[8] = day 2 following a single dose, 84.2 mg/m^2 (7.02 mg/kg) oral gavage, Solutol
[9] = day 2 following a single dose, 336.7 mg/m^2 (28.06 mg/kg) oral gavage, PEG400:Labrasol 1:1 v/v
[10] = day 2 following a single dose, n = 4, 84.2 mg/m^2 (7.02 mg/kg) oral gavage, PEG400:Labrasol 1:1 v/v
[11] = 93.6 mg/m^2 (4.68 mg/kg) iv, DMSO:PEG300 15:85 v/v, fed
[12] = 93.6 mg/m^2 (4.68 mg/kg) oral gavage, Solutol, fasted
[13] = 93.6 mg/m^2 (4.68 mg/kg) oral gavage, Solutol, fed

For `CCOC(=O)c1ccc2[nH]c3c(OC)c4[nH]c5ccc(C(=O)OCC)cc5c4cc3c2c1` [SR13668, 2,10-dicarbethoxy-6-methoxy-5,7-dihydro-indolo-(2,3-b)carbazole], the “adverse treatment-related clinical observations” value [1] was “soft stools and diarrhea in orally but not i.v. dosed monkeys”, the “effects on body weights, body weight gains or food consumption” value [1] was “No significant treatment-related effects on body weights, body weight gains or food consumption” and the “effects on clinical pathology (clinical chemistry, hematology, coagulation)” value [1] was “modest, reversible increase in liver function enzymes; also recorded: modest increases in liver enzymes”. The mortality or morbidity [1] was “no mortalities or morbidity”, the ALT [1, 3] was 112 ± 52 IU/L and the AST [1, 3] was 234 ± 115 IU/L. The LDH [1, 3] was 1022 ± 401 IU/L, the ALT [1, 4] was 100 ± 38 ^a IU/L and the AST [1, 4] was 178 ± 86 ^b IU/L. It also gave an LDH [1, 4] of 1035 ± 596 IU/L, an ALT [1, 5] of 41.3 ± 10 IU/L and an AST [1, 5] of 24.0 ± 2.9 IU/L. The LDH [1, 5] was 184 ± 39 IU/L, the ALT [1, 6] was 33.3 ± 2.2 IU/L and the AST [1, 6] was 22.5 ± 4.3 IU/L. For the same compound, the LDH [1, 6] was 168 ± 39 IU/L, the “reversibility of liver enzyme increases” value ([1]; LDH, ALT, AST) was “reversible on discontinuation of dosing” and the ALT [1, 7] was 88.5 ± 37 IU/L. The AST [1, 7] was 134 ± 41 ^b IU/L, the LDH [1, 7] was 730 ± 210 ^c IU/L and the ALT [1, 8] was 95.5 ± 33 IU/L. The AST [1, 8] was 150 ± 40 ^b IU/L, the LDH [1, 8] was 779 ± 403 IU/L and the ALT [1, 9] was 108 ± 28 ^a IU/L. The AST [1, 9] was 188 ± 34 ^b IU/L, the LDH [1, 9] was 753 ± 242 ^c IU/L and the ALT [1, 10] was 86.0 ± 24 IU/L. The AST [1, 10] was 138 ± 75 IU/L, the LDH [1, 10] was 795 ± 455 IU/L and the “adverse treatment-related clinical observations” value [2] was “vomiting in fasted dogs”. For the same compound, the “effects on body weights, body weight gains or food consumption” value [2] was “No significant treatment-related effects on body weights, body weight gains or food consumption”, the “effects on clinical pathology (clinical chemistry, hematology, coagulation)” value [2] was “did not cause untoward hematology, clinical chemistry, or coagulation effects; also recorded: No treatment-related effects on any clinical pathology variables” and the mortality or morbidity [2] was “no mortalities or morbidity”. For the same compound, the ALT [2, 11] was 41.8 ± 5.4 IU/L, the AST [2, 11] was 30.8 ± 5.2 IU/L and the LDH [2, 11] was 54.8 ± 23 ^c IU/L. The ALT [2, 12] was 44.8 ± 10 IU/L, the AST [2, 12] was 30.8 ± 7.2 IU/L and the LDH [2, 12] was 56.3 ± 9.4 IU/L. The ALT [2, 13] was 39.5 ± 4.7 IU/L, the AST [2, 13] was 29.3 ± 3.6 IU/L and the LDH [2, 13] was 30.3 ± 6.2 ^c IU/L.
